#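 These data come from cells grown in 96-well plates and exposed to compound for 48 hours at five concentrations. Here, GI50 denotes the concentration required for 50% inhibition of growth.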 Active and inactive are the calls of the source. No stated cut-off is given here; in the data, active = GI50 up to about 1.1 µM and inactive = higher.
# Assays:
# Test in all cases: NCI anticancer screen, dose series, 48 h
# SNB-19 = tested on: SNB-19
# SK-MEL-5 = tested on: SK-MEL-5
# SNB-75 = tested on: SNB-75
# CAKI-1 = tested on: CAKI-1
# MOLT-4 = tested on: MOLT-4
# SK-MEL-2 = tested on: SK-MEL-2
# OVCAR-3 = tested on: OVCAR-3
# OVCAR-5 = tested on: OVCAR-5
# IGROV-1 = tested on: IGROV-1
# A498 = tested on: A498
# 786-0 = tested on: 786-0
# NCI-H460 = tested on: NCI-H460
# COLO 205 = tested on: COLO 205
# HCT-15 = tested on: HCT-15
# RPMI-8226 = tested on: RPMI-8226
# MDA-MB-231 = tested on: MDA-MB-231
# BT-549 = tested on: BT-549
# SW-620 = tested on: SW-620
# K562 = tested on: K562
# SF-539 = tested on: SF-539
# CCRF-CEM = tested on: CCRF-CEM
# PC-3 = tested on: PC-3
# RXF 393 = tested on: RXF 393
# HL-60 = tested on: HL-60
# T47D = tested on: T47D
# MDA-MB-435 = tested on: MDA-MB-435
# UACC-62 = tested on: UACC-62
# ACHN = tested on: ACHN
# TK-10 = tested on: TK-10
# OVCAR-4 = tested on: OVCAR-4
# UO-31 = tested on: UO-31
# A549 = tested on: A549
# HOP-62 = tested on: HOP-62
# NCI-H522 = tested on: NCI-H522
# MCF7 = tested on: MCF7
# UACC-257 = tested on: UACC-257
# HCT-116 = tested on: HCT-116
# SN12C = tested on: SN12C
# SK-OV-3 = tested on: SK-OV-3
# LOX IMVI = tested on: LOX IMVI
# DU-145 = tested on: DU-145
# SK-MEL-28 = tested on: SK-MEL-28
# EKVX = tested on: EKVX
# SF-295 = tested on: SF-295
# KM12 = tested on: KM12
# U-251 = tested on: U-251
# Hs-578T = tested on: Hs-578T
# HOP-92 = tested on: HOP-92
# SR = tested on: SR
# Malme-3M = tested on: Malme-3M
# OVCAR-8 = tested on: OVCAR-8
# M14 = tested on: M14
# NCI-H23 = tested on: NCI-H23
# NCI/ADR-RES = tested on: NCI/ADR-RES
# NCI-H226 = tested on: NCI-H226
# HT-29 = tested on: HT-29
# SF-268 = tested on: SF-268
smiles,measurement,setting,value
CCOC(=O)c1cccn1S(=O)(=O)c1cc(Cl)ccc1NC(=O)CC,GI50,SNB-19,> 100 µM (inactive)
same,GI50,SK-MEL-5,20.2 µM (inactive)
same,GI50,SNB-75,33.3 µM (inactive)
same,GI50,CAKI-1,> 100 µM (inactive)
same,GI50,MOLT-4,47.8 µM (inactive)
same,GI50,SK-MEL-2,53.5 µM (inactive)
same,GI50,OVCAR-3,> 100 µM (inactive)
same,GI50,OVCAR-5,> 100 µM (inactive)
same,GI50,IGROV-1,> 100 µM (inactive)
same,GI50,A498,> 100 µM (inactive)
same,GI50,786-0,57 µM (inactive)
same,GI50,NCI-H460,50.1 µM (inactive)
same,GI50,COLO 205,16.3 µM (inactive)
same,GI50,HCT-15,44 µM
same,GI50,RPMI-8226,75.9 µM (inactive)
same,GI50,MDA-MB-231,39.2 µM (inactive)
same,GI50,BT-549,52.6 µM (inactive)
same,GI50,SW-620,> 100 µM (inactive)
same,GI50,K562,51.8 µM (inactive)
same,GI50,SF-539,> 100 µM (inactive)
same,GI50,CCRF-CEM,> 100 µM (inactive)
same,GI50,PC-3,59.2 µM (inactive)
same,GI50,RXF 393,91 µM (inactive)
same,GI50,HL-60,> 100 µM (inactive)
same,GI50,T47D,44.9 µM (inactive)
same,GI50,MDA-MB-435,33.3 µM (inactive)
same,GI50,UACC-62,58.9 µM (inactive)
same,GI50,ACHN,> 100 µM (inactive)
same,GI50,TK-10,> 100 µM (inactive)
same,GI50,OVCAR-4,60.1 µM (inactive)
same,GI50,UO-31,15.4 µM (inactive)
same,GI50,A549,54.1 µM (inactive)
same,GI50,HOP-62,> 100 µM (inactive)
same,GI50,NCI-H522,18.5 µM (inactive)
same,GI50,MCF7,> 100 µM (inactive)
same,GI50,UACC-257,> 100 µM (inactive)
same,GI50,HCT-116,40 µM (inactive)
same,GI50,SN12C,> 100 µM (inactive)
same,GI50,SK-OV-3,43.3 µM (inactive)
same,GI50,LOX IMVI,70.5 µM (inactive)
same,GI50,DU-145,> 100 µM (inactive)
same,GI50,SK-MEL-28,> 100 µM (inactive)
same,GI50,EKVX,61.7 µM (inactive)
same,GI50,SF-295,35.2 µM (inactive)
same,GI50,KM12,44.9 µM (inactive)
same,GI50,U-251,> 100 µM (inactive)
same,GI50,Hs-578T,28.9 µM (inactive)
same,GI50,HOP-92,> 100 µM (inactive)
same,GI50,SR,> 10 µM (inactive)
N/C(=N\c1ccc(Cl)cc1)NS(=O)(=O)c1ccc(-c2ncccc2C(F)(F)F)s1,GI50,Malme-3M,15.2 µM (inactive)
same,GI50,SNB-19,18.6 µM (inactive)
same,GI50,SK-MEL-5,20.5 µM (inactive)
same,GI50,SNB-75,18.8 µM (inactive)
same,GI50,MOLT-4,12.7 µM (inactive)
same,GI50,SK-MEL-2,15.8 µM (inactive)
same,GI50,OVCAR-3,17.6 µM (inactive)
same,GI50,OVCAR-5,24.3 µM (inactive)
same,GI50,IGROV-1,12 µM (inactive)
same,GI50,OVCAR-8,14.6 µM (inactive)
same,GI50,A498,16.7 µM (inactive)
same,GI50,786-0,17.1 µM (inactive)
same,GI50,NCI-H460,13.1 µM (inactive)
same,GI50,COLO 205,42 µM (inactive)
same,GI50,HCT-15,16.6 µM
same,GI50,RPMI-8226,17.3 µM (inactive)
same,GI50,MDA-MB-231,13.9 µM (inactive)
same,GI50,BT-549,14.9 µM (inactive)
same,GI50,SW-620,15.3 µM (inactive)
same,GI50,K562,13.1 µM (inactive)
same,GI50,SF-539,25.8 µM (inactive)
same,GI50,PC-3,13.1 µM (inactive)
same,GI50,RXF 393,18.3 µM (inactive)
same,GI50,HL-60,15.2 µM (inactive)
same,GI50,T47D,12.3 µM (inactive)
same,GI50,UACC-62,11.3 µM (inactive)
same,GI50,M14,14.6 µM (inactive)
same,GI50,ACHN,16 µM (inactive)
same,GI50,TK-10,13.4 µM (inactive)
same,GI50,OVCAR-4,18.5 µM (inactive)
same,GI50,UO-31,17.2 µM (inactive)
same,GI50,A549,15.2 µM (inactive)
same,GI50,HOP-62,18.2 µM (inactive)
same,GI50,NCI-H522,10.4 µM (inactive)
same,GI50,MCF7,14.7 µM (inactive)
same,GI50,UACC-257,3.17 µM (inactive)
same,GI50,HCT-116,14 µM (inactive)
same,GI50,SN12C,17.2 µM (inactive)
same,GI50,SK-OV-3,17.4 µM (inactive)
same,GI50,LOX IMVI,14 µM (inactive)
same,GI50,DU-145,17.1 µM (inactive)
same,GI50,SK-MEL-28,16.9 µM (inactive)
same,GI50,NCI-H23,13.5 µM (inactive)
same,GI50,EKVX,4.61 µM (inactive)
same,GI50,NCI/ADR-RES,18.8 µM (inactive)
same,GI50,SF-295,16.1 µM (inactive)
same,GI50,KM12,23.9 µM (inactive)
same,GI50,U-251,13.1 µM (inactive)
same,GI50,Hs-578T,17.1 µM (inactive)
same,GI50,NCI-H226,17.2 µM (inactive)
same,GI50,HT-29,19.4 µM (inactive)
same,GI50,HOP-92,14.7 µM (inactive)
same,GI50,SF-268,16.5 µM (inactive)
same,GI50,SR,10.5 µM (inactive)
